Counter-ions that a name gives are not always drawn.
Tested on: ApoB secretion, HepG2 cells
Test: Quantification of the secretion of ApoB (HepG2 cells, immunoprecipitation, scintillation counting)
Assay type: cell-based
Details: 24 hours of incubation; for IC50: Homo sapiens, HepG2, 24 h
Procedure: C.1. Quantification of the Secretion of ApoB
HepG2 cells were cultured in 24-well plates in Minimal Essential Medium Rega 3 containing 10% fetal calf serum. Rega 3 has the following composition: CaCl2 (264 μg/ml), KCl (400 μg/ml), MgSO4.7H2O (200 μg/ml), NaCl (6800 μg/ml), NaHCO3 (850 μg/ml), NaH2PO4.H2O (158 μg/ml), D-glucose (1000 μg/ml), phenol red (10 μg/ml), L-alanine (8.9 μg/ml), L-arginine HCl (12 μg/ml), L-asparagine.H2O (15 μg/ml), L-aspartic acid (13.3 μg/ml), L-cystine (24 μg/ml), L-glutamic acid (14.7 μg/ml), glycine (7.5 μg/ml), L-histidine.HCl .H2O (42 μg/ml), L-isoleucine (52 μg/ml), L-leucine (52 μg/ml), L-lysine.HCl (72.5 μg/ml), L-methionine (15 μg/ml), L-phenylalanine (32 μg/ml), L-proline (11.5 μg/ml), L-serine (10.5 μg/ml), L-threonine (48 μg/ml), L-tryptophan (10 μg/ml), L-tyrosine (36 μg/ml), L-valine (46 μg/ml), D-Ca pantothenate (1 μg/ml), choline chloride (1 μg/ml), folic acid (1 μg/ml), 1-enositol (2 μg/ml), nicotinamide (1 μg/ml), pyridoxal HCl (1 μg/ml), riboflavin (0.1 μg/ml) and thiamine HCl (1 μg/ml).
At 70% confluency, the medium was changed and the test compound or carrier (dimethylsulfoxide, 0.4% final concentration) was added. After 24 hours of incubation, the medium was transferred to Eppendorf tubes and cleared by centrifugation. A sheep antibody directed against either apo B was added to the supernatant and the mixture was kept at 8° C. for 24 hours. Then, rabbit anti-sheep antibody was added and the immune complex was allowed to precipitate for 24 hours at 8° C. The immunoprecipitate was pelleted by centrifugation for 25 minutes at 1320 g and washed twice with a buffer containing 40 mM 4-morpholinepropanesulfonic acid, 40 mM NaH2PO4, 100 mM NaF, 0.2 mM dithiothreitol, 5 mM ethylenediamine tetraacetic acid, 5 mM ethylenebis (oxyethylenenitrilo) tetraacetic acid, 1% Triton-X-100, 0.5% sodium deoxycholate, 0.1% sodium dodecylsulphate, 0.2 μM leupeptin and 0.2 μM phenylmethylsulphonylfluoride. Radioactivity in the pellet was quantified by liquid scintillation counting.
Resulting IC50 values are enumerated in Table C.1 for a number of compounds No. 1 to No. 123.

Row | IC50 | pIC50 (listed as 37) | SMILES
1 | 0.184 µM |  | CCNC(=O)C(c1ccccc1)N1CCN(c2ccc(NC(=O)c3cc(OC)c(OC)cc3-c3ccc(C(F)(F)F)cc3)cc2)CC1 (centres unmarked) [Co. No. 202]
2 | 0.00313 µM |  | COC(=O)C(c1ccccc1)N1CCN(c2ccc(NC(=O)c3ccc(C)cc3-c3ccc(C(F)(F)F)cc3)cc2)CC1 (centres unmarked) [Co. No. 184]
3 | 0.235 µM |  | COC(=O)C(c1ccccc1)N1CCN(c2ccc(NC(=O)c3cc(OC)c(OC)cc3-c3ccc(C(F)(F)F)cc3)cc2)CC1 (centres unmarked) [Co. No. 193]
4 | 0.114 µM |  | O=C(Nc1ccc(N2CCN(C(C(=O)OCc3ccccc3)c3ccccc3)CC2)cc1)c1ccccc1-c1ccc(C(F)(F)F)cc1 (centres unmarked) [Co. No. 142]
5 | 0.525 µM |  | CC(C)=CCOC(=O)C(c1ccccc1)C1CCN(c2ccc(NC(=O)c3ccccc3-c3ccc(C(F)(F)F)cc3)cc2)CC1 (centres unmarked) [Co. No. 245]
6 | 0.0417 µM |  | CCNC(=O)C(c1ccccc1)N1CCC(c2ccc(NC(=O)c3ccccc3-c3ccccc3)cc2)CC1 (centres unmarked) [Co. No. 149]
7 | < 0.03 µM |  | CCNC(=O)C(c1ccccc1)N1CCN(c2ccc(NC(=O)c3ccccc3-c3ccc(C(F)(F)F)cc3)cc2C)CC1 (centres unmarked) [Co. No. 218]
8 | ≤ 0.03 µM |  | CC(C)NC(=O)C(c1ccccc1)N1CCN(c2ccc(NC(=O)c3ccccc3-c3ccc(C(F)(F)F)cc3)cc2)CC1 (centres unmarked) [Co. No. 56]
9 | 0.0938 µM |  | O=C(Nc1ccc(N2CCC(C(C(=O)NCc3ccccc3)c3ccccc3)CC2)cc1)c1ccccc1-c1cc(Cl)cc(Cl)c1 (centres unmarked) [Co. No. 50]
10 | 0.0203 µM |  | O=C(Nc1ccc(N2CCN(C(C(=O)Nc3ccccc3)c3ccccc3)CC2)cc1)c1ccccc1-c1ccc(C(F)(F)F)cc1 (centres unmarked) [Co. No. 140]
11 | 0.0488 µM |  | COC(=O)C(c1ccccc1)N1CCN(c2ccc(NC(=O)c3ccc(F)cc3-c3ccc(C(F)(F)F)cc3)cc2)CC1 (centres unmarked) [Co. No. 185]
12 | ≤ 0.03 µM |  | CCCNC(=O)C(c1ccccc1)C1CCN(c2ccc(NC(=O)c3ccccc3-c3ccc(Cl)cc3)cc2)CC1 (centres unmarked) [Co. No. 68]
13 | 0.783 µM |  | COC(=O)C(c1ccccc1)N1CCN(c2ccc(NC(=O)c3ccccc3-c3ccc(C(F)(F)F)cc3)c(C(F)(F)F)c2)CC1 (centres unmarked) [Co. No. 206]
14 | 2.69 µM |  | CCNC(=O)C(c1ccccc1)N1CCN(c2ccc(NC(=O)c3ccccc3-c3ccc(C(F)(F)F)cc3)cc2C(F)(F)F)CC1 (centres unmarked) [Co. No. 217]
15 | 0.0604 µM |  | C=CCNC(=O)C(c1ccccc1)N1CCN(c2ccc(NC(=O)c3ccccc3-c3ccccc3)cc2)CC1 (centres unmarked) [Co. No. 148]
16 | 0.0841 µM |  | CCNC(=O)C(c1ccccc1)C1CCN(c2ccc(NC(=O)c3ccccc3-c3cccc(Cl)c3)cc2)CC1 (centres unmarked) [Co. No. 86]
17 | 0.0217 µM |  | COC(=O)C(c1ccccc1)C1CCN(c2ccc(NC(=O)c3cccc(C)c3-c3ccc(CC(C)C)cc3)cc2)CC1 (centres unmarked) [Co. No. 236]
18 | 0.743 µM |  | COC(=O)C(c1ccc(Br)cc1)N1CCN(c2ccc(NC(=O)c3ccccc3-c3ccc(C(F)(F)F)cc3)cc2)CC1 (centres unmarked) [Co. No. 261]
19 | 0.434 µM |  | Cc1cccc(-c2ccccc2C(=O)Nc2ccc(N3CCC(C(C(=O)Nc4ccccc4)c4ccccc4)CC3)cc2)c1 (centres unmarked) [Co. No. 112]
20 | 0.0324 µM |  | CCNC(=O)C(c1ccccc1)N1CCN(c2ccc(NC(=O)c3ccccc3-c3ccc(Cl)cc3)cc2)CC1 (centres unmarked) [Co. No. 160]
21 | < 0.03 µM |  | COC(=O)C(c1ccccc1)N1CCN(c2ccc(NC(=O)c3ccccc3-c3ccc(C(F)(F)F)cc3)c(F)c2)CC1 (centres unmarked) [Co. No. 212]
22 | 0.00641 µM |  | COC(=O)C(c1ccccc1)N1CCN(c2ccc(NC(=O)c3cccc(C)c3-c3ccc(C(F)(F)F)cc3)cc2)CC1 (centres unmarked) [Co. No. 190]
23 | 0.558 µM |  | CCOC(=O)C(c1ccc(Cl)cc1)N1CCN(c2ccc(NC(=O)c3ccccc3-c3ccc(C(F)(F)F)cc3)cc2)CC1 (centres unmarked) [Co. No. 262]
24 | 0.0685 µM |  | C#CCOC(=O)C(c1ccccc1)C1CCN(c2ccc(NC(=O)c3ccccc3-c3ccc(C(F)(F)F)cc3)cc2)CC1 (centres unmarked) [Co. No. 248]
25 | 0.114 µM |  | CCNC(=O)C(c1ccccc1)C1CCN(c2ccc(NC(=O)c3ccccc3-c3ccccc3)cc2)CC1 (centres unmarked) [Co. No. 180]
26 | ≥ 3 µM |  | O=C(Nc1ccc(N2CCC(C(C(=O)NCc3ccccc3)c3ccccc3)CC2)cc1)c1cccc2c1Cc1ccccc1-2 (centres unmarked) [Co. No. 4]
27 | < 0.03 µM |  | COC(=O)C(c1ccccc1)N1CCN(c2ccc(NC(=O)c3ccccc3-c3ccc(C(F)(F)F)cc3)c(Cl)c2)CC1 (centres unmarked) [Co. No. 207]

Row | IC50 | pIC50 (listed as 37) | SMILES
28 | 0.0411 µM |  | COC(=O)C(c1ccccc1)N1CCN(c2ccc(NC(=O)c3c(F)cccc3-c3ccc(C(F)(F)F)cc3)cc2)CC1 (centres unmarked) [Co. No. 187]
29 | 0.00748 µM |  | COC(=O)C(c1ccccc1)N1CCN(c2ccc(NC(=O)c3ccccc3-c3ccc(C(F)(F)F)cc3)c(C)c2)CC1 (centres unmarked) [Co. No. 208]
30 | 0.0731 µM |  | CCNC(=O)C(c1ccccc1)N1CCN(c2ccc(NC(=O)c3cc(C)ccc3-c3ccc(C(F)(F)F)cc3)cc2)CC1 (centres unmarked) [Co. No. 198]
31 | 0.0676 µM |  | C#CCOC(=O)C(c1ccccc1)N1CCC(c2ccc(NC(=O)c3ccccc3-c3ccc(C(F)(F)F)cc3)cc2)CC1 (centres unmarked) [Co. No. 225]
32 | 0.0923 µM |  | O=C(Nc1ccc(N2CCC(C(C(=O)OCc3ccccc3)c3ccccc3)CC2)cc1)c1ccccc1-c1ccc(C(F)(F)F)cc1 (centres unmarked) [Co. No. 174]
33 | 0.0975 µM |  | CCCNC(=O)C(c1ccccc1)C1CCN(c2ccc(NC(=O)c3ccccc3-c3cccc(Cl)c3)cc2)CC1 (centres unmarked) [Co. No. 82]
34 | 0.0325 µM |  | O=C(Nc1ccc(C2CCN(C(C(=O)NCC(F)(F)F)c3ccccc3)CC2)cc1)c1ccccc1-c1ccc(C(F)(F)F)cc1 (centres unmarked) [Co. No. 78]
35 | ≥ 3 µM |  | O=C(Nc1ccc(N2CCC(C(C(=O)Nc3ccccc3)c3ccccc3)CC2)cc1)c1ccccc1Cc1ccccc1 (centres unmarked) [Co. No. 35]
36 | 0.0165 µM |  | CCNC(=O)C(c1ccccc1)N1CCN(c2ccc(NC(=O)c3c(C)cccc3-c3ccc(C(F)(F)F)cc3)cc2)CC1 (centres unmarked) [Co. No. 197]
37 | 0.188 µM |  | O=C(Nc1ccc(N2CCC(C(C(=O)Nc3ccccc3)c3ccccc3)CC2)cc1)c1ccccc1-c1cccc(Cl)c1 (centres unmarked) [Co. No. 108]
38 | 1.55 µM |  | O=C(Nc1ccc(C2CCN(C(C(=O)OCc3ccccc3)c3ccccc3)CC2)cc1)c1ccccc1-c1ccccc1 (centres unmarked) [Co. No. 153]
39 | ≤ 0.03 µM |  | CCNC(=O)C(c1ccccc1)C1CCN(c2ccc(NC(=O)c3ccccc3-c3ccc4ccccc4c3)cc2)CC1 (centres unmarked) [Co. No. 95]
40 | 0.199 µM |  | CCCNC(=O)C(c1ccccc1)C1CCN(c2ccc(NC(=O)c3ccccc3-c3ccc4ccccc4c3)cc2)CC1 (centres unmarked) [Co. No. 47]
41 | 0.134 µM |  | C=CCOC(=O)C(c1ccccc1)C1CCN(c2ccc(NC(=O)c3ccccc3-c3ccc(C(F)(F)F)cc3)cc2)CC1 (centres unmarked) [Co. No. 176]
42 | 0.0966 µM |  | O=C(Nc1ccc(C2CCN(C(C(=O)Nc3ccccc3)c3ccccc3)CC2)cc1)c1ccccc1-c1ccccc1 (centres unmarked) [Co. No. 162]
43 | 1.77 µM |  | CCCNC(=O)C(c1ccccc1)C1CCN(c2ccc(NC(=O)c3ccccc3-c3ccccc3OC)cc2)CC1 (centres unmarked) [Co. No. 43]
44 | 0.165 µM |  | O=C(Nc1ccc(N2CCC(C(C(=O)Nc3ccccc3)c3ccccc3)CC2)cc1)c1ccccc1-c1ccccc1 (centres unmarked) [Co. No. 30]
45 | 0.00331 µM |  | CCNC(=O)C(c1ccccc1)C1CCN(c2ccc(NC(=O)c3ccccc3-c3ccc(C(F)(F)F)cc3)cc2)CC1 (centres unmarked) [Co. No. 181]
46 | 0.1 µM |  | CCNC(=O)C(c1ccccc1)N1CCN(c2ccc(NC(=O)c3c(F)cccc3-c3ccc(C(F)(F)F)cc3)cc2)CC1 (centres unmarked) [Co. No. 196]
47 | 0.207 µM |  | COc1ccccc1-c1ccccc1C(=O)Nc1ccc(N2CCC(C(C(=O)NCc3ccccc3)c3ccccc3)CC2)cc1 (centres unmarked) [Co. No. 101]
48 | 0.0993 µM |  | O=C(Nc1ccc(N2CCC(C(C(=O)Nc3ccccc3)c3ccccc3)CC2)cc1)c1ccccc1-c1ccc2ccccc2c1 (centres unmarked) [Co. No. 138]
49 | 0.127 µM |  | O=C(Nc1ccc(N2CCC(C(C(=O)Nc3ccccc3)c3ccccc3)CC2)cc1)c1ccccc1-c1cccc(C(F)(F)F)c1 (centres unmarked) [Co. No. 118]
50 | 0.0216 µM |  | COC(=O)C(c1ccccc1)N1CCN(c2ccc(N(C)C(=O)c3ccccc3-c3ccc(C(F)(F)F)cc3)cc2)CC1 (centres unmarked) [Co. No. 183]
51 | 0.356 µM |  | O=C(Nc1ccc(C2CCN(C(C(=O)Nc3ccccc3)c3ccccc3)CC2)cc1)c1ccccc1-c1ccc(C(F)(F)F)cc1 (centres unmarked) [Co. No. 80]
52 | 0.0736 µM |  | O=C(Nc1ccc(N2CCC(C(C(=O)NCc3ccccc3)c3ccccc3)CC2)cc1)c1ccccc1-c1ccccc1Cl (centres unmarked) [Co. No. 103]
53 |  | 7.507 | COC(=O)C(c1ccccc1)C1CCN(c2ccc(NC(=O)c3ccccc3-c3ccc(C(F)(F)F)cc3)cc2)CC1 (stereo not drawn) [Co. No. 37, methyl α-phenyl-1-[4-[[[4′-(trifluoromethyl)[1,1′-biphenyl]-2-yl]carbonyl]amino]phenyl]-4-piperidineacetate trifluoroacetate (1:1)]
